# Results from ChEMBL document CHEMBL2073801, “Chlorpyrifos oxon interacts with the mammalian multidrug resistance protein, P-glycoprotein” (J Toxicol Environ Health, 1996).
# Entries after “also recorded” stand apart in the source; their conditions may differ.
# Experiments:
# [1] = molecular target: ATP-dependent translocase ABCB1 (Homo sapiens, UniProt P08183); assay: TP_TRANSPORTER: ATP hydrolysis in MDR1-expressing Sf9 cells; assay type: functional
# [2] = molecular target: Multidrug resistance protein 1a (Rattus norvegicus) (UniProt Q6PSM0); assay: TP_TRANSPORTER: Immunohistochemisty in vivo, liver of Fischer 344 rat; assay type: functional, organism-based
# [3] = molecular target: Multidrug resistance protein 1a (Rattus norvegicus) (UniProt Q6PSM0); assay: TP_TRANSPORTER: Immunohistochemisty in vivo, stomach of Fischer 344 rat; assay type: functional, organism-based
# [4] = molecular target: Multidrug resistance protein 1a (Rattus norvegicus) (UniProt Q6PSM0); assay: TP_TRANSPORTER: Immunohistochemisty in vivo, kidney of Fischer 344 rat; assay type: functional, organism-based
# [5] = molecular target: Multidrug resistance protein 1a (Rattus norvegicus) (UniProt Q6PSM0); assay: TP_TRANSPORTER: Immunohistochemisty in vivo, jejunum of Fischer 344 rat; assay type: functional, organism-based
# [6] = molecular target: Multidrug resistance protein 1a (Rattus norvegicus) (UniProt Q6PSM0); assay: TP_TRANSPORTER: Immunohistochemisty in vivo, adrenals of Fischer 344 rat; assay type: functional, organism-based; settings: Adrenal tissue
# Sequence of Multidrug resistance protein 1a (Rattus norvegicus) (Q6PSM0 as listed by the source): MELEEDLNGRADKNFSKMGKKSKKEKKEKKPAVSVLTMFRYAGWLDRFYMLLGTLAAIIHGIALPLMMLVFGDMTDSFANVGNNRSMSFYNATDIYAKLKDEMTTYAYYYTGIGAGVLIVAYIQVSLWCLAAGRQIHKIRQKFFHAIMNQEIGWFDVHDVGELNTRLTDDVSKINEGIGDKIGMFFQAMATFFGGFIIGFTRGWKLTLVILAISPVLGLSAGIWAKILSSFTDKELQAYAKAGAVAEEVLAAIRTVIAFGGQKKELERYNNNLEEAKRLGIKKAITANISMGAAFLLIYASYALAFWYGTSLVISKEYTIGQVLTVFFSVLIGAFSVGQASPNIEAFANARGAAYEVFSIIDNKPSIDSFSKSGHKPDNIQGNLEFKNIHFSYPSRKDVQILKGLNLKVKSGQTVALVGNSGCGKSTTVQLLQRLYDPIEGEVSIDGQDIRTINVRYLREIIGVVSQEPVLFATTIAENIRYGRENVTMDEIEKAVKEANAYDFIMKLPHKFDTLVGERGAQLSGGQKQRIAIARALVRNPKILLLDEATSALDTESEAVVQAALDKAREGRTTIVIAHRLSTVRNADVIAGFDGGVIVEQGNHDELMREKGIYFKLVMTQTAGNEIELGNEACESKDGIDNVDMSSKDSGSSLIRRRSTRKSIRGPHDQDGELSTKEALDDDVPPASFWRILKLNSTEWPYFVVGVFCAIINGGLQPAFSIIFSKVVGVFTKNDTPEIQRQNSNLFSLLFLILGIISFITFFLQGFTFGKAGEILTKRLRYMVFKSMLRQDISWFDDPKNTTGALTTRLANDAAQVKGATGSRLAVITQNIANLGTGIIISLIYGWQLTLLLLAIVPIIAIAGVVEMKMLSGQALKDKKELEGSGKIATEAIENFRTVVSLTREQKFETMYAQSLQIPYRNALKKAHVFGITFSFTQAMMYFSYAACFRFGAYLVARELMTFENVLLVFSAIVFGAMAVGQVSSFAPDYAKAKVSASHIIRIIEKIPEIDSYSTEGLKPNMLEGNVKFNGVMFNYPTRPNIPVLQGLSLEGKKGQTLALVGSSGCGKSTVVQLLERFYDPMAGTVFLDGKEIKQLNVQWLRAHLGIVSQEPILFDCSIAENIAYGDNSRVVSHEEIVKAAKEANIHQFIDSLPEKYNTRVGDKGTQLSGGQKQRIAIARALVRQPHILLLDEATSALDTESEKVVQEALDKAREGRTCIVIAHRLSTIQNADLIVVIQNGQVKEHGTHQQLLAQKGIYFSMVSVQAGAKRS
# Sequence of ATP-dependent translocase ABCB1 (P08183 whole entry): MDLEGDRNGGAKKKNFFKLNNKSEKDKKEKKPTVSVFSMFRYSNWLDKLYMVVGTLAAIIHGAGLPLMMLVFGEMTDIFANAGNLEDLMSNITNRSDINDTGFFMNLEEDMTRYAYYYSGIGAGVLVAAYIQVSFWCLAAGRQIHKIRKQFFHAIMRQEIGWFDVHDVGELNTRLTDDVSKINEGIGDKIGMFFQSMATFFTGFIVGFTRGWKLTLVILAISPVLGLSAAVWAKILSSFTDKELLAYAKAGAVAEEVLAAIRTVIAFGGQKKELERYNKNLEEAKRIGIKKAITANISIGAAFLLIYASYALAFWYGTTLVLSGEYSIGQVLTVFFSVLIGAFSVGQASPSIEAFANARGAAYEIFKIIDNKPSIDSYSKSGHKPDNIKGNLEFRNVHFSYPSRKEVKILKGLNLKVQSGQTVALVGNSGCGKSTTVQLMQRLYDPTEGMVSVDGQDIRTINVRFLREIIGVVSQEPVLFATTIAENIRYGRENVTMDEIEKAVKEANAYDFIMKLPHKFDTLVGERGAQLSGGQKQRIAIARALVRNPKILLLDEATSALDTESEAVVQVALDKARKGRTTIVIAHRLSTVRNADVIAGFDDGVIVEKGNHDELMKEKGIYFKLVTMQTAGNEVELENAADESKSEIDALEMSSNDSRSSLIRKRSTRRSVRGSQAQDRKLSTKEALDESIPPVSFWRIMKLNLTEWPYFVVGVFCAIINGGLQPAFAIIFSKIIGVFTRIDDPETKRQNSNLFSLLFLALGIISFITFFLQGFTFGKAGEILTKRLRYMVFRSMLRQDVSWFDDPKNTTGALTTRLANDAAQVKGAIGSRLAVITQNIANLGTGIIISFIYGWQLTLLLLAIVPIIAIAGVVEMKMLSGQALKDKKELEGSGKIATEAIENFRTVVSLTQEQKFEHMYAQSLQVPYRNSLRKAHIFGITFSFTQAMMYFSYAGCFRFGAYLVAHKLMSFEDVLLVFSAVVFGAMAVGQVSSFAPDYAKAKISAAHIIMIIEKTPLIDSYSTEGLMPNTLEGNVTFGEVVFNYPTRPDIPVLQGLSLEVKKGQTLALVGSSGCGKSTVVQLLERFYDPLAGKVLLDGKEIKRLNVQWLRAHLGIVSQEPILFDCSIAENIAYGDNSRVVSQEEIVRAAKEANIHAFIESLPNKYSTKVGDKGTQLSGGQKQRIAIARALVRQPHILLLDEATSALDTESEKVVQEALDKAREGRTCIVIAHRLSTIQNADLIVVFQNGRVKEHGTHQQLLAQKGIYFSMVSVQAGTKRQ
smiles,measurement,setting,value
CCOP(=S)(OCC)Oc1nc(Cl)c(Cl)cc1Cl [CHLORPYRIFOS],Activity,[1],substrate [+]; also recorded: is not a substrate [-]
same,Activity,[2],inducer [+]
same,Activity,[3],inducer [+]
same,Activity,[4],inducer [+]
same,Activity,[5],inducer [+]
same,Activity,[6],inducer [+]
